# From ChEMBL document CHEMBL1649541, “Molecular basis and phenotype of methicillin resistance in Staphylococcus aureus and insights into new beta-lactams that meet the challenge” (Antimicrob Agents Chemother, 2009)
# Tests used:
# [1] = biological target: T1, Penicillin-binding protein 1 (Staphylococcus aureus, UniProt Q53725); experiment: Inhibition of methicillin-susceptible Staphylococcus aureus ATCC 29213 PBP 1
# T1 sequence (Q53725 whole entry): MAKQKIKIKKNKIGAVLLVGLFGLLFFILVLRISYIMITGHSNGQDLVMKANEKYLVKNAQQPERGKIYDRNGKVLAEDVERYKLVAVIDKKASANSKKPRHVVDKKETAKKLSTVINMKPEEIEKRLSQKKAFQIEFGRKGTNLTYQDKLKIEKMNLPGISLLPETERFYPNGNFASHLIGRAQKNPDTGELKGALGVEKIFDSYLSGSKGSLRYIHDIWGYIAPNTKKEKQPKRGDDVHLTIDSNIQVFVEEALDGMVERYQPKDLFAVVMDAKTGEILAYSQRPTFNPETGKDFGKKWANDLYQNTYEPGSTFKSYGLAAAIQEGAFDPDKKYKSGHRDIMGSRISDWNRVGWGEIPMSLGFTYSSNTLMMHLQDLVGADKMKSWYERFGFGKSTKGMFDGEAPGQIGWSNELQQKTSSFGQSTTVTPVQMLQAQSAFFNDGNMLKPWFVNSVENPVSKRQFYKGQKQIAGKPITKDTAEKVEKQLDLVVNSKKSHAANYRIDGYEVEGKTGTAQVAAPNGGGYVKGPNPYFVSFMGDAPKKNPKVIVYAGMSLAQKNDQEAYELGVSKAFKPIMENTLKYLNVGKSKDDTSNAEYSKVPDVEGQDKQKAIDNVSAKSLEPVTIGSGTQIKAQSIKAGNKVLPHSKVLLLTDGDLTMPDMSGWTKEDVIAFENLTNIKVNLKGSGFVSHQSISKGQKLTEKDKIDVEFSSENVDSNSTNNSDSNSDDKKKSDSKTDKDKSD
# Staphylococcus aureus [2] = experiment: Antimicrobial activity against methicillin-resistant Staphylococcus aureus infected in patient with complicated skin and skin structure infection assessed as cure rate at 500 mg/kg, iv administered every 12 hrs; format: functional
# Staphylococcus aureus [3] = experiment: Antimicrobial activity against methicillin-resistant Staphylococcus aureus infected in patient with complicated skin and skin structure infection assessed as cure rate at 1 g/kg, iv administered every 12 hrs; format: functional
# [4] = biological target: T2, Penicillin-binding protein 4 (Staphylococcus aureus, UniProt P72355); experiment: Inhibition of methicillin-susceptible Staphylococcus aureus ATCC 29213 PBP 4
# T2 sequence (P72355 whole entry): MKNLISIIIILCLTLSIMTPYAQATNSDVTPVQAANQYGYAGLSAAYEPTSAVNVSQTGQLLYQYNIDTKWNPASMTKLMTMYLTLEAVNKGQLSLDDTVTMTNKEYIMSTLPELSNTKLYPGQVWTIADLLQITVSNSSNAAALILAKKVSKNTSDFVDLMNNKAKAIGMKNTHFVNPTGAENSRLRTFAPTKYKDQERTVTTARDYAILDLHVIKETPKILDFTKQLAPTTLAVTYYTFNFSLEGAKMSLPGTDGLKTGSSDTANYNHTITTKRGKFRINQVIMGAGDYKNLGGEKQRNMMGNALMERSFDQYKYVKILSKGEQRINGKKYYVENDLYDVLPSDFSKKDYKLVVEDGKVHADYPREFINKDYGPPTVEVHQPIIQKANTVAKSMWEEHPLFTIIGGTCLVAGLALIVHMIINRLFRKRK
# Staphylococcus aureus [5] = experiment: Antimicrobial activity against methicillin-susceptible Staphylococcus aureus ATCC 29213 by M7-A7 dilution method; format: functional
# [6] = biological target: T3, Penicillin-binding protein 2b (Staphylococcus aureus, UniProt Q9XDB3); experiment: Inhibition of methicillin-susceptible Staphylococcus aureus ATCC 29213 PBP 3
# T3 sequence (Q9XDB3 whole entry): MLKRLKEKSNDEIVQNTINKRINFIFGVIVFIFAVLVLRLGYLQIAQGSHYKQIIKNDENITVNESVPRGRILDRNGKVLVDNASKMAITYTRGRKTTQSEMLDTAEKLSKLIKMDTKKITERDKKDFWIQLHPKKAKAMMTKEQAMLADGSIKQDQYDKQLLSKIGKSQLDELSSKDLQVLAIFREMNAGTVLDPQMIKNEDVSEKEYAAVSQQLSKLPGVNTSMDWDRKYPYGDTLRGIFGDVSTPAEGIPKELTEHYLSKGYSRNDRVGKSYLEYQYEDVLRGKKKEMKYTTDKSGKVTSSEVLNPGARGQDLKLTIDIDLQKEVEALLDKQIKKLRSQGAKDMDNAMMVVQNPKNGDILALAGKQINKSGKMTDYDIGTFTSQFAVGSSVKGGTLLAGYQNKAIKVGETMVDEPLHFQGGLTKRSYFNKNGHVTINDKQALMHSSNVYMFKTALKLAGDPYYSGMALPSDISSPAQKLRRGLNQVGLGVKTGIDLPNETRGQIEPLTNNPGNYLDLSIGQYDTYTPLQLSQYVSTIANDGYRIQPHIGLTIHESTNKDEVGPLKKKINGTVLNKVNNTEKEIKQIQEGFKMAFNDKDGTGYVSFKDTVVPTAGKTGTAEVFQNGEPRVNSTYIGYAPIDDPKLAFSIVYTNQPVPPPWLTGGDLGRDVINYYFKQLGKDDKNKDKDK
# [7] = biological target: T4, Penicillin-binding protein 2 (Staphylococcus aureus, UniProt Q53729); experiment: Inhibition of methicillin-susceptible Staphylococcus aureus ATCC 29213 PBP 2
# T4 sequence (Q53729 whole entry): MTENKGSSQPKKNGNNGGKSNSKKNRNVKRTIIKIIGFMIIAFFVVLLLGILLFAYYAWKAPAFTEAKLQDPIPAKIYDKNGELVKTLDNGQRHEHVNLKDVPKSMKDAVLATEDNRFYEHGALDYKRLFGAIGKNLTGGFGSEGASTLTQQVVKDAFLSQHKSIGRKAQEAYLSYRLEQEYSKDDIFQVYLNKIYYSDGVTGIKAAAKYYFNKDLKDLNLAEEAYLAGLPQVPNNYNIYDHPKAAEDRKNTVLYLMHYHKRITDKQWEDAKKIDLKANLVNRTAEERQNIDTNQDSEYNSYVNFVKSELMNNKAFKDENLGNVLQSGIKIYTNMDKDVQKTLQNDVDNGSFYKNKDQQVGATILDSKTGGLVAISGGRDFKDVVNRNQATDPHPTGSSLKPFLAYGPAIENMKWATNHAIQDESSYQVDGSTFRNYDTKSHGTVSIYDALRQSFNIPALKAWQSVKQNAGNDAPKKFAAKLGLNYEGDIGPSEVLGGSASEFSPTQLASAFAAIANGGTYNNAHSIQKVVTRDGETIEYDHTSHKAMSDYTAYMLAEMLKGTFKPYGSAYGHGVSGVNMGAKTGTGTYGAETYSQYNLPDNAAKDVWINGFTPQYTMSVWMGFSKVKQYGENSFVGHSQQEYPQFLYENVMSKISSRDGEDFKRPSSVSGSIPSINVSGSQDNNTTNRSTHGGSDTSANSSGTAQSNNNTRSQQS
# MecA [8] = biological target: T5, MecA (Staphylococcus aureus, UniProt Q7DHH4); experiment: Inhibition of methicillin-resistant Staphylococcus aureus OC 3726 PBP 2a
# T5 sequence (Q7DHH4 whole entry): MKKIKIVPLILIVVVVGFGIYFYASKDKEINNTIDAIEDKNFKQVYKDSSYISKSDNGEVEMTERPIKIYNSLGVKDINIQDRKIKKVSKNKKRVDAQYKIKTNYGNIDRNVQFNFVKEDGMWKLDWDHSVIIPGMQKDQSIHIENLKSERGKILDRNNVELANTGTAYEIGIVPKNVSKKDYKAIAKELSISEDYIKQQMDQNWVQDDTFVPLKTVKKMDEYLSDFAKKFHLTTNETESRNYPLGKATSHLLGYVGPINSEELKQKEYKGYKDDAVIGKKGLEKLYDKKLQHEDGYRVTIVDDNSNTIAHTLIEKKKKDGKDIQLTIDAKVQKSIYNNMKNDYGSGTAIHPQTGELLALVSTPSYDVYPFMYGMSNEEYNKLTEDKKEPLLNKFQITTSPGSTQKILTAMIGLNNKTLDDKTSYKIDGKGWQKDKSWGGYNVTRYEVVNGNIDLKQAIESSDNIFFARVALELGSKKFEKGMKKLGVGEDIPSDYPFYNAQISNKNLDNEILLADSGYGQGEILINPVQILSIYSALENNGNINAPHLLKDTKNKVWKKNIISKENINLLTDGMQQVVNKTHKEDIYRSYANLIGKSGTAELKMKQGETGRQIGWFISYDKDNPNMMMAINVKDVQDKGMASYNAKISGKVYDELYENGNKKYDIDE
# Staphylococcus aureus [9] = experiment: Antimicrobial activity against methicillin-resistant Staphylococcus aureus in mouse systemic infection model; format: functional
# Staphylococcus aureus [10] = experiment: Antimicrobial activity against vancomycin-resistant Staphylococcus aureus; format: functional
# Staphylococcus aureus [11] = experiment: Antimicrobial activity against community-acquired Staphylococcus aureus; format: functional
# [12] = biological target: T4, Penicillin-binding protein 2; experiment: Binding affinity to methicillin-susceptible Staphylococcus aureus PBP 2
# Staphylococcus aureus [13] = experiment: Antimicrobial activity against methicillin-resistant Staphylococcus aureus ATCC 29213 by CLSI method; format: functional
# [14] = biological target: T3, Penicillin-binding protein 2b; experiment: Binding affinity to methicillin-susceptible Staphylococcus aureus PBP 3
# Staphylococcus aureus [15] = experiment: Antimicrobial activity against daptomycin-nonsusceptible Staphylococcus aureus; format: functional
# [16] = biological target: T2, Penicillin-binding protein 4; experiment: Binding affinity to methicillin-susceptible Staphylococcus aureus PBP 4
# MecA [17] = biological target: T5, MecA; experiment: Inhibition of methicillin-resistant Staphylococcus aureus PBP 2a
# [18] = biological target: T1, Penicillin-binding protein 1; experiment: Binding affinity to methicillin-susceptible Staphylococcus aureus PBP 1
# Staphylococcus aureus [19] = experiment: Antimicrobial activity against vancomycin-intermediate Staphylococcus aureus; format: functional
# MecA [20] = biological target: T5, MecA; experiment: Binding affinity to methicillin-resistant Staphylococcus aureus MF535HR PBP 2a by competitive binding assay
# Staphylococcus aureus [21] = experiment: Antimicrobial activity against methicillin-resistant Staphylococcus aureus; format: functional
# Staphylococcus aureus [22] = experiment: Bactericidal activity against methicillin-resistant Staphylococcus aureus; format: functional
# Staphylococcus aureus [23] = experiment: Ratio of MBC to MIC for methicillin-resistant Staphylococcus aureus; format: functional
structure (smiles),measurement,setting,value
Cc1oc(=O)oc1COC(=O)N1CC[C@@H](N2CC/C(=C\C3=C(C(=O)O)N4C(=O)[C@@H](NC(=O)/C(=N/O)c5nsc(N)n5)[C@H]4SC3)C2=O)C1 [CEFTOBIPROLE MEDOCARIL FREE ACID],IC50,[1],145 nM
same,Activity,Staphylococcus aureus [2],92%
same,Activity,Staphylococcus aureus [3],90%
same,IC50,[4],1450 nM
same,MIC,Staphylococcus aureus [5],2 µg/mL
same,IC50,[6],72.4 nM
same,IC50,[7],724 nM
same,IC50,MecA [8],1300 nM
CC(=O)NC[C@H]1CN(c2ccc(N3CCOCC3)c(F)c2)C(=O)O1 [LINEZOLID],ED50,Staphylococcus aureus [9],7.4 mg/kg
CCO/N=C(\C(=O)N[C@@H]1C(=O)N2C(C(=O)[O-])=C(Sc3nc(-c4cc[n+](C)cc4)cs3)CS[C@H]12)c1nsc(NP(=O)(O)O)n1 [CEFTAROLINE FOSAMIL],MIC,Staphylococcus aureus [10],0.12 µg/mL
same,MIC90,Staphylococcus aureus [11],1 µg/mL
same,IC50,[12],49.7 nM
same,MIC,Staphylococcus aureus [13],0.25 µg/mL
same,IC50,[14],71.6 nM
same,MIC,Staphylococcus aureus [15],0.5 µg/mL
same,IC50,[16],> 1460 nM
same,IC50,MecA [17],234 nM
same,IC50,[18],146 nM
same,MIC90,Staphylococcus aureus [19],1 µg/mL
CO/N=C(\C(=O)N[C@@H]1C(=O)N2C(C(=O)O)=C(CSc3nc(=O)c(O)nn3C)CS[C@H]12)c1csc(N)n1 [CEFTRIAXONE],MIC,Staphylococcus aureus [5],> 64 µg/mL
C[C@@H](O)[C@H]1C(=O)N2C(C(=O)[O-])=C(c3cn4cnc(C(=O)c5ccc[n+](CC(N)=O)c5)c4s3)[C@H](C)[C@H]12,IC50,MecA [20],262 nM
CN[C@H](CC(C)C)C(=O)N[C@H]1C(=O)N[C@@H](CC(N)=O)C(=O)N[C@H]2C(=O)N[C@H]3C(=O)N[C@H](C(=O)N[C@H](C(=O)O)c4cc(O)cc(O)c4-c4cc3ccc4O)[C@H](O)c3ccc(c(Cl)c3)Oc3cc2cc(c3O[C@@H]2O[C@H](CO)[C@@H](O)[C@H](O)[C@H]2O[C@H]2C[C@](C)(N)[C@H](O)[C@H](C)O2)Oc2ccc(cc2Cl)[C@H]1O [VANCOMYCIN],ED50,Staphylococcus aureus [9],6 mg/kg
CC(C)(O/N=C(\C(=O)N[C@@H]1C(=O)N2C(C(=O)[O-])=C(C[n+]3ccccc3)CS[C@H]12)c1csc(N)n1)C(=O)O [CEFTAZIDIME],MIC,Staphylococcus aureus [5],> 128 µg/mL
C[C@H]1C=C(c2csc(SC3=C(C(=O)O)N4C(=O)[C@H]([C@@H](C)O)[C@H]4[C@H]3C)n2)CN1 [RAZUPENEM],MIC90,Staphylococcus aureus [21],2 µg/mL
same,MBC,Staphylococcus aureus [22],0.5 µg/mL
same,Ratio,Staphylococcus aureus [23],1
same,ED50,Staphylococcus aureus [9],4.7 mg/kg
